pIC50: −log10 of the molar value. Values joined by “and” are separate entries in the source; they are usually repeats but may differ in a detail not shown here. Equal entries are not always repeated.
System: 422866-222-R5-J1-PDC spheroids with HUVEC/MSC, viability
Test: Anticancer human tumor 422866-222-R5-J1-PDC patient-derived pancreatic adenocarcinoma cell line growth inhibition [GQUAD]
Details: for viability, T/C: stronger effect = lower value; active means viability on the fitted dose curve at most 10% of control; inactive means the rest
Text: DNA G-quadruplex Stabilizer Agents in Combinations in Complex Spheroids
A high-throughput screen of multi-cell type tumor spheroids was designed to identify active combinations of DNA G-quadruplex stabilizer agents and targeted small molecules. Complex spheroids include a stromal component modeled by human endothelial cells (HUVEC) and fibroblasts modeled by human mesenchymal stem cells (MSCs). The concentration ranges selected for each drug and investigational agent were based upon clinically achievable concentrations if the clinical Cmax of the agent was known.
Compounds. The drugs and investigational agents: pidnarulex (CX-5461; NSC782164), APTO-253 (NSC789042), BRACO-19 (NSC847499), peposertib (NSC802822), ceralasertib (NSC780249), elimusertib (NSC800525), camonsertib (NSC841442), AZD-1390 (NSC803789), olaparib (NSC753686), talazoparib (NSC767125), ART-558 (NSC835418), sotorasib (NSC818433), MRTX-1133 (NSC836407), SN-38 (NSC673596), topotecan (NSC609699), etoposide (NSC141540), doxorubicin (NSC123127), gemcitabine (NSC613327), 5-fluorouracil (NSC19893), paclitaxel (NSC125973), vemurafenib (NSC761431), panobinostat (NSC761190), R-306465 (JNJ-16241199; NSC773264), adavosertib (NSC754352), TP-3654 (NSC805149), carboplatin (NSC241240), KSQ-4279 (NSC840948), and staurosporine (NSC755774) were obtained from the National Cancer Institute (NCI) Developmental Therapeutics Program Chemical Repository (34). The FDA-approved anticancer drug set is available from the NCI Developmental Therapeutics Program. […] The stock solutions were prepared in dimethyl sulfoxide (DMSO, Sigma-Aldrich, St. Louis, MO, cat. D2650) at 800-fold the tested concentration and stored at -70 degrees C prior to their use. All drugs and investigational agents were tested over a range starting from a high concentration at or near the clinical Cmax and decreasing in half-log increments. If the clinical Cmax for an agent had not been determined, the highest concentration tested was 10 microM.
2.3 Cell Culture. All cells were maintained in an incubator at 37 degrees C and 5% CO2 with 95% humidity. The PDC lines were cultured according to standard operating procedures established by the NCI PDMR. All PDCs were thawed and cultured in Matrigel-coated flasks prepared with a working solution of 1X Ham's F-12 nutrient mix, without supplementation (Invitrogen, cat. 11765054), 100 U/mL penicillin-streptomycin (Invitrogen, cat. 15140122), and 2.5% Matrigel (Corning Inc., cat. 354248) for the first three passages. The 857933-349-R-J2-PDC line was cultured in 6C/Colon 1B media, which includes advanced DMEM/F-12 (Thermo Fisher Scientific, cat. 12634028), 10 mM HEPES (Thermo Fisher Scientific, cat. 15630080), 1X GlutaMAX supplement (Thermo Fisher Scientific, cat. 35050061), 0.1 mg/mL primocin (InvivoGen, cat. ant-pm-2), 10% defined fetal bovine serum, heat inactivated (HyClone Laboratories Inc., cat. SH30070.03HI), 50% L-WRN conditioned media (ATCC, cat. CRL-3276), 1.25 mM N-Acetyl-L-cysteine (Sigma-Aldrich, cat. A9165), 10 mM nicotinamide (Sigma-Aldrich, cat. N0636), 1X B-27 supplement (Thermo Fisher Scientific, cat. 17504044), 1X N-2 supplement (Thermo Fisher Scientific, cat. 17502048), 10 microM Y-27632 dihydrochloride (Tocris Bioscience, cat. 1254), and 50 ng/mL human EGF recombinant protein (Thermo Fisher Scientific, cat. PHG0311). The 485176-168-R4-J1-PDC line was cultured in Panc media, which includes all 6C/Colon 1B media components plus 100 ng/mL human FGF-10 (Thermo Fisher Scientific, cat. 100-26), 500 nM SB-431542 (Selleckchem, cat. S1067), and gastrin (Tocris, cat. 3006).
[…]
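Further: spheroids exposed to compounds for seven days before reading.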
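Wherever viability, T/C is given: percent viability relative to DMSO vehicle control taken as 100%.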

CC(C)n1c(=O)n(C)c2cnc3cc(F)c(-c4ccc(OCCCN5CCCCC5)nc4)cc3c21
inactive: viability, T/C (compound 0.0316 µM) 99.2% and 87.6% and 100% | viability, T/C (compound 0.1 µM) 80.5% and 101% and 90.1% | viability, T/C (compound 0.316 µM) 110% and 104% and 113% | viability, T/C (compound 1 µM) 97.4% and 95.7% and 97.5% | viability, T/C (compound 3.16 µM) 85.5% and 89.8% and 90.1% | viability, T/C (compound 10 µM) 58.6% and 62.1% and 64.2%
< 5.00: pIC50 (curve of compound)

Cc1[nH]c2ccc(F)cc2c1-c1nc2c3cccnc3c3ncccc3c2[nH]1
< 5.00: pIC50 (compound alone, run of 04/16/2024) | pIC50 (compound alone, run of 04/22/2024)
inactive: viability, T/C (compound 3.16 µM) 84.5% [middle of 12 runs]

CCc1c2c(nc3ccc(O)cc13)-c1cc3c(c(=O)n1C2)COC(=O)[C@]3(O)CC
inactive: viability, T/C (compound 0.000999 µM) 53.2% and 55.8% and 56.2% | viability, T/C (compound 0.00316 µM) 38.6% and 47.6% and 39.6% | viability, T/C (compound 0.00999 µM) 42.5% and 37.8% and 43.5% | viability, T/C (compound 0.0316 µM) 36.8% and 46.3% and 25.2% | viability, T/C (compound 0.0999 µM) 33.3% and 47.4% and 35.1% | viability, T/C (compound 0.316 µM) 34% and 43.8% and 29.1%
> 9.00 and 8.93 and 8.79: pIC50 (curve of compound)

CC(C)(O)C1CCC(Nc2ccc3ncc(-c4cccc(C(F)(F)F)c4)n3n2)CC1 (stereo not drawn)
inactive: viability, T/C (compound 0.0316 µM) 94.3% and 83.6% and 92% | viability, T/C (compound 0.1 µM) 82.7% and 87.6% and 89.7% | viability, T/C (compound 0.316 µM) 73.7% and 75.8% and 103% | viability, T/C (compound 1 µM) 47.5% and 75.1% and 71% | viability, T/C (compound 3.16 µM) 35% and 31.5% and 45% | viability, T/C (compound 10 µM) 24.6% and 32.1% and 50.8%
6.00 and 5.71 and 5.55: pIC50 (curve of compound)

COc1cccc2c1C(=O)c1c(O)c3c(c(O)c1C2=O)CC(O)(C(=O)CO)CC3OC1CC(N)C(O)C(C)O1 (stereo not drawn)
6.38 and 6.23 and 6.09: pIC50 (curve of compound)
inactive: viability, T/C (compound 0.0316 µM) 94.3% and 90.9% and 92.6% | viability, T/C (compound 0.1 µM) 58.5% and 62.5% and 78.8% | viability, T/C (compound 0.316 µM) 61.9% and 57.1% and 68.5% | viability, T/C (compound 1 µM) 41.8% and 51.2% and 47.5% | viability, T/C (compound 3.16 µM) 35.5% and 35.9% and 29.4% | viability, T/C (compound 10 µM) 32% and 40.5% and 31.3%

C=CCn1c(=O)c2cnc(Nc3ccc(N4CCN(C)CC4)cc3)nc2n1-c1cccc(C(C)(C)O)n1
inactive: viability, T/C (compound 0.0316 µM) 80.3% and 112% and 88.7% | viability, T/C (compound 0.1 µM) 106% and 90.1% and 74.5% | viability, T/C (compound 0.316 µM) 125% and 67.2% and 52.5% | viability, T/C (compound 1 µM) 143% and 39.7% and 40.5% | viability, T/C (compound 3.16 µM) 172% and 31.3% and 30.6% | viability, T/C (compound 10 µM) 99.8% and 32.3% and 27.9%

CC[C@@]1(O)C(=O)OCc2c1cc1n(c2=O)Cc2cc3c(CN(C)C)c(O)ccc3nc2-1
7.09 and 6.59 and 7.17: pIC50 (curve of compound)
inactive: viability, T/C (compound 0.000999 µM) 83.5% and 106% and 100% | viability, T/C (compound 0.00316 µM) 90.9% and 90.2% and 96.4% | viability, T/C (compound 0.00999 µM) 95.7% and 88.8% and 103% | viability, T/C (compound 0.0316 µM) 75.4% and 74.9% and 70.9% | viability, T/C (compound 0.0999 µM) 45.5% and 52.7% and 40.6% | viability, T/C (compound 0.316 µM) 42.4% and 50.6% and 38.1%

Cc1cccc(N(C)C(=O)C2C(O)CCN2c2nc(C)cc(C(F)(F)F)c2C#N)c1 (stereo not drawn)
< 5.00: pIC50 (curve of compound)
inactive: viability, T/C (compound 0.0316 µM) 96.3% and 97.3% and 82.4% | viability, T/C (compound 0.1 µM) 103% and 95.9% and 89.9% | viability, T/C (compound 0.316 µM) 103% and 102% and 96.2% | viability, T/C (compound 1 µM) 101% and 96.9% and 109% | viability, T/C (compound 3.16 µM) 99.9% and 77.2% and 105% | viability, T/C (compound 10 µM) 108% and 97.5% and 98%

CC(C)(O)C1CCC(Nc2ccc3ncc(-c4cccc(C(F)(F)F)c4)n3n2)CC1 (stereo not drawn) + Cc1cnc(CNC(=O)c2c(=O)c3ccc(N4CCCN(C)CC4)nc3n3c2sc2ccccc23)cn1
inactive: viability, T/C (second compound 0.0316 µM, first compound 0.0316 µM) 102% | viability, T/C (second compound 0.0316 µM, first compound 0.1 µM) 80.6% | viability, T/C (second compound 0.0316 µM, first compound 0.316 µM) 97.1% | viability, T/C (second compound 0.0316 µM, first compound 1 µM) 51.4% | viability, T/C (second compound 0.0316 µM, first compound 3.16 µM) 42% | viability, T/C (second compound 0.0316 µM, first compound 10 µM) 51.8% | viability, T/C (second compound 0.1 µM, first compound 0.0316 µM) 91.4% | viability, T/C (second compound 0.1 µM, first compound 0.1 µM) 76.3% | viability, T/C (second compound 0.1 µM, first compound 0.316 µM) 81.2% | viability, T/C (second compound 0.1 µM, first compound 1 µM) 66.5% | viability, T/C (second compound 0.1 µM, first compound 3.16 µM) 58.8% | viability, T/C (second compound 0.1 µM, first compound 10 µM) 63.7% | viability, T/C (second compound 0.316 µM, first compound 0.0316 µM) 86.8% | viability, T/C (second compound 0.316 µM, first compound 0.1 µM) 83.9% | viability, T/C (second compound 0.316 µM, first compound 0.316 µM) 75.1% | viability, T/C (second compound 0.316 µM, first compound 1 µM) 78.6% | viability, T/C (second compound 0.316 µM, first compound 3.16 µM) 76.3% | viability, T/C (second compound 0.316 µM, first compound 10 µM) 75.5% | viability, T/C (second compound 1 µM, first compound 0.0316 µM) 74.6% | viability, T/C (second compound 1 µM, first compound 0.1 µM) 88.7% | viability, T/C (second compound 1 µM, first compound 0.316 µM) 79.4% | viability, T/C (second compound 1 µM, first compound 1 µM) 75.6% | viability, T/C (second compound 1 µM, first compound 3.16 µM) 82.3% | viability, T/C (second compound 1 µM, first compound 10 µM) 75.4% | viability, T/C (second compound 3.16 µM, first compound 0.0316 µM) 71.1% | viability, T/C (second compound 3.16 µM, first compound 0.1 µM) 101% | viability, T/C (second compound 3.16 µM, first compound 0.316 µM) 76% | viability, T/C (second compound 3.16 µM, first compound 1 µM) 72.8% | viability, T/C (second compound 3.16 µM, first compound 3.16 µM) 68.5% | viability, T/C (second compound 3.16 µM, first compound 10 µM) 54.1% | viability, T/C (second compound 10 µM, first compound 0.0316 µM) 83% | viability, T/C (second compound 10 µM, first compound 0.1 µM) 67.8% | viability, T/C (second compound 10 µM, first compound 0.316 µM) 83.2% | viability, T/C (second compound 10 µM, first compound 1 µM) 75.5% | viability, T/C (second compound 10 µM, first compound 3.16 µM) 25.9%
5.74: pIC50 (curve of first compound, second compound 10 µM)
< 5.00: pIC50 (curve of first compound, second compound 0.1 µM) | pIC50 (curve of first compound, second compound 0.316 µM) | pIC50 (curve of first compound, second compound 1 µM) | pIC50 (curve of first compound, second compound 3.16 µM)
active: viability, T/C (second compound 10 µM, first compound 10 µM) 0.79%
5.84: pIC50 (curve of first compound, second compound 0.0316 µM)
